Series [1] concerns adult males and females treated for nocturia. Nature of the series: Clinical observations in adult males and females treated with desmopressin for nocturia. The format is in vivo, human. From the text:
Hyponatremia can result in seizures, cardiac arrhythmias, cerebral edema and death.

A further series in a line: clinical. The conditions noted are these: male, human, in vivo. The protocol:
Twenty-four healthy non-smoking male volunteers were enrolled in the present study. The study was designed as a one-centre, open-labelled, randomized, balanced, 4-way cross-over phase I study. […] Between the doses there was a washout period of 72 hours. In order to standardize the buccal mucosa before administration of the orodispersible tablet, the subjects were asked to avoid foods, chewing gun etc. Subjects were allowed to brush their teeth in the morning before dosing, but without toothpaste. […] 3.2 (Pharsight Corporation, US). […] Values below LOQ not followed by values above the LOQ are excluded from the NCA analysis, and set to zero in the descriptive statistics on concentrations.

Series [2] in a line: Bioavailability of desmopressin conventional tablets (Comparative Example 4). The conditions noted are these: male, human, in vivo, po, 200 μg. The text has this:
Thirty-six healthy male volunteers (Caucasian, Black and Hispanic) were enrolled in this study, which was designed as an open label, single dose, 3-way crossover study.

For series [3] the following is noted: human, in vivo, cited from earlier work.
The conditions of series [4]: in vivo; cited from earlier work.

Molecules are shown by their SMILES. Read-outs that look alike come from different tables or passages of the source.

Usually bioavailability stands for dose-corrected exposure relative to a reference, in per cent. Take `NC(=O)CC[C@@H]1NC(=O)[C@H](Cc2ccccc2)NC(=O)[C@H](Cc2ccc(O)cc2)NC(=O)CCSSC[C@@H](C(=O)N2CCC[C@H]2C(=O)N[C@H](CCCN=C(N)N)C(=O)NCC(N)=O)NC(=O)[C@H](CC(N)=O)NC1=O` [desmopressin, 1-desamino-8-D-arginine vasopressin]: in series [1] (oral doses 100 to 400 mcg and intranasal doses 10 to 20 mcg), the incidence of nocturia result is “decreased the incidence of nocturia”. In addition, in series [1] (standard oral doses 100 to 400 mcg and intranasal doses 10 to 20 mcg, nocturia patients), the incidence of hyponatremia result was “unexpectedly high incidence of hyponatremia”. Moreover, the bioavailability was 0.23 to 0.38% in “clinical”; 0.3% in the series “clinical” (bioavailability); 0.16% in series [2] (oral 1×200 μg tablet (Comparative Example 2)); 0.13% in series [2] (oral 2×100 μg tablets (Comparative Example 3)); 0.1-0.15% in series [3] (po). The results for the “% Bioavailability” value in series [3] (iv), in series [3] (po) and in series [3] (sc) were “Intravenous (100) %”, “Oral (0.1) %” and “Subcutaneous (±90) %”, respectively. Moreover, in series [4], the absorption entry is listed as “not significantly absorbed”.
